{
  "source": "paper PMC6385087",
  "about": "“New Multitarget Hybrids Bearing Tacrine and Phenylbenzothiazole Motifs as Potential Drug Candidates for Alzheimer’s Disease” (Molecules, 2019)",
  "key": {"SH-SY5Y cells [1]": {"test_system": "SH-SY5Y cells", "assay": "Neuroprotection against Aβ1–42 induced toxicity, MTT reduction", "assay_type": "cell-based, human", "conditions": "Aβ1-42 1 μM, 24 h after 1 h pre-treatment, compounds: 16 2.5 µM, 17 0.5 µM, 14 and 15 0.2 µM, 19 and 18 1 µM", "protocol": "(§1) The neuroprotective effect of TAC-PhBTA conjugates was evaluated using SH-SY5Y cells treated with Aβ1–42 peptides or ascorbate/iron. For each compound, a dose-response curve was performed to select a non-toxic concentration in order to analyze its neuroprotective effect (Figure 3).\nSH-SY5Y human neuroblastoma cell line (ATCC-CRL-2266) grown in Dulbecco’s modified Eagle’s medium (DMEM) obtained from Gibco-Invitrogen (Life Technologies Ltd., Liverpool, UK) with 10% heat inactivated fetal calf serum, containing 50 U/mL penicillin, and 50 μg/mL streptomycin, under a humidified atmosphere of 95% air-5% CO2 at 37 °C. Cells were plated at 0.12 × 10^6 cells/mL for cell viability assay. The tested compounds (16, 17, 14, 15, 19 and 18) were dissolved in DMSO at a concentration of 25 mM and aliquots were stored at −20 °C. We performed a dose-response screening (from 0.2 μM to 5 μM) in order to choose the highest non-toxic concentration. As a result we selected a 2.5 μM final concentration for compound 16; 0.5 μM final concentration for compound 17; 0.2 μM final concentration for compounds 14 and 15; and a 1 μM final concentration for compounds 19 and 18. […] The compounds were added to the cell media 1 h before the incubation with Aβ1–42 or ferrous sulfate/L-ascorbic acid. Aβ1–42 or ferrous sulfate/L-ascorbic acid where incubated alone or with the compound for an additional 24 h. Aβ1–42 was prepared as 276.9 μM stock in sterile water and added to the medium at 1 μM final concentration. Ferrous sulfate was freshly prepared as 0.36 M stock in water and added to the medium at 500 μM final concentration. L-Ascorbic Acid was freshly prepared as 80 mM stock in water and added to the medium at 5 mM final concentration. […]\n(§2) Cell viability was determined by a MTT (3-(4,5-dimethylthiazol-2-yl)-2,5-diphenyltetrazolium bromide) reduction test. […] The absorbance was measured at 570 nm. Cell reduction ability was expressed as a percentage of untreated control cells.\n(§3) All data were expressed as mean ± S.E.M. of at least three independent experiments performed in duplicates. […]"}, "Aβ1–42 self-aggregation": {"molecular_target": "T1, Aβ1–42 self-aggregation (Homo sapiens, UniProt P05067)", "T1 construct": "Commercially available Aβ1-42 peptide was obtained from Aldrich; purchased Aldrich", "T1 sequence (P05067 672-713 limits assumed)": "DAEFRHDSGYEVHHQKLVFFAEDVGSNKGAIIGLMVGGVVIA", "assay": "Aβ1–42 self-aggregation inhibition, thioflavin T fluorescence assay", "assay_type": "biochemical", "conditions": "self-mediated Aβ42 aggregation, ThT fluorescence, CL = 40 μM, means of two experiments; for inhibition at 40 µM: read-out: Inhibition of Aβ-self-aggregation (%)", "protocol": "[…]. Since the compounds of this series presented some solubility problems in methanol, the assays were performed with ligands at concentrations of 40 µM, i.e., half of the concentration usually used (80 µM) in these assays. […]. […] So, it appears that introduction of a chloro substituent in TAC and/or a hydroxyl group in the carbon linker are not well suited for the interaction with β-sheet secondary structure of Aβ aggregates. […].\nCommercially available Aβ1-42 peptide was obtained from Aldrich and stored at −20 °C. It was treated with 1,1,1,3,3,3-hexafluoropropan-2-ol (HFIP) to avoid self-aggregation and reserved. HFIP pre-treated Aβ1–42 samples were re-dissolved in CH3CN/Na2CO3 (300 µM)/NaOH (250 µM) (48.3:48.3:4.3, v/v/v) solvent mixture in order to have a stable stock solution; this solution (500 µM) was further diluted in phosphate buffer (0.215 M, pH 8.0) to obtain 40 µM solution. The ligand, which was previously dissolved in methanol, was further diluted in phosphate buffer to a final concentration of 40 µM. Aβ1–42 aggregation was determined by measuring the fluorescence emission of Thioflavin T dye, with a Cary Eclipse Varian fluorimeter (Molecular Devices, San José, CA, USA).\nAfter incubation for 24 h at 37 °C, without stirring, the samples were added to a 96-well plate (BD Falcon) with 180 µL of 5 µM ThT in 50 mM glycine-NaOH (pH 8.5) buffer. Blank samples were prepared for each concentration in a similar way, devoid of peptide. As for the control, a sample of the peptide was incubated under identical conditions but without the inhibitor. After 5-min incubation with the dye, the ThT fluorescence was measured at the following wavelengths: 446 nm (excitation) and 486 nm (emission). The percent inhibition of the self-induced aggregation due to the presence of the test compound was calculated by Equation (2), in which IFi and IF0 corresponded to the fluorescence intensities, in the presence and the absence of the test compound, minus the fluorescence intensities due to the respective blanks. I% = 100 − (IFi/IF0 × 100)(2)\nThe reported values were obtained as the mean ± S.E.M. of two different experiments."}, "SH-SY5Y cells [2]": {"test_system": "SH-SY5Y cells", "assay": "Neuroprotection against ferrous sulfate/L-ascorbic acid toxicity, MTT reduction", "assay_type": "cell-based, human", "conditions": "Fe/Asc 500 μM/5 mM, 24 h after 1 h pre-treatment, compounds: 16 2.5 µM, 17 0.5 µM, 14 and 15 0.2 µM, 19 and 18 1 µM", "protocol": "as §1\nSH-SY5Y human neuroblastoma cell line (ATCC-CRL-2266) grown in Dulbecco’s modified Eagle’s medium (DMEM) obtained from Gibco-Invitrogen (Life Technologies Ltd., Liverpool, UK) with 10% heat inactivated fetal calf serum, containing 50 U/mL penicillin, and 50 μg/mL streptomycin, under a humidified atmosphere of 95% air-5% CO2 at 37 °C. Cells were plated at 0.12 × 10^6 cells/mL for cell viability assay. The tested compounds (16, 17, 14, 15, 19 and 18) were dissolved in DMSO at a concentration of 25 mM and aliquots were stored at −20 °C. We performed a dose-response screening (from 0.2 μM to 5 μM) in order to choose the highest non-toxic concentration. […]\nas §2, §3"}, "Solubility in methanol": {"assay": "Solubility in methanol", "assay_type": "physicochemical"}},
  "note": "“Also recorded” adds a separate entry of the source.",
  "data": [
    {"smiles": "COc1cc(-c2nc3ccccc3s2)ccc1OCC(=O)NCCNc1c2c(nc3cc(Cl)ccc13)CCCC2", "note": "[compound 15, 2-(4-(Benzo[d]thiazol-2-yl)-2-methoxyphenoxy)-N-(2-((6-chloro-1,2,3,4 tetrahydroacridin-9-yl)amino)ethyl)acetamide]", "values": [
      {"measurement": "Prevention of Aβ-induced cell toxicity (cell viability, MTT)", "setting": "SH-SY5Y cells [1]", "value": "capacity to prevent Aβ-induced toxicity; also recorded: prevented Aβ-induced cell toxicity"},
      {"measurement": "inhibition at 40 µM", "setting": "Aβ1–42 self-aggregation", "value": 27, "unit": "%"}
    ]},
    {"smiles": "COc1cc(-c2nc3ccccc3s2)ccc1OCC(=O)NCC(O)CNc1c2c(nc3cc(Cl)ccc13)CCCC2", "note": "(stereo not drawn) [compound 19, 2-(4-(Benzo[d]thiazol-2-yl)-2-methoxyphenoxy)-N-(3-((6-chloro-1,2,3,4-tetrahydroacridin-9-yl)amino)-2-hydroxypropyl)acetamide]", "values": [
      {"measurement": "Prevention of Aβ-induced cell toxicity (cell viability, MTT)", "setting": "SH-SY5Y cells [1]", "value": "capacity to prevent Aβ-induced toxicity; also recorded: prevented Aβ-induced cell toxicity"},
      {"measurement": "Inhibition of Aβ-self-aggregation (%)", "setting": "Aβ1–42 self-aggregation; 40 µM", "value": 31.3, "unit": "%"},
      {"measurement": "inhibition at 40 µM", "setting": "Aβ1–42 self-aggregation", "value": "~31", "unit": "%"}
    ]},
    {"smiles": "COc1cc(-c2nc3ccccc3s2)ccc1OCC(=O)NCCCNc1c2c(nc3ccccc13)CCCC2", "note": "[compound 16, 2-(4-(Benzo[d]thiazol-2-yl)-2-methoxyphenoxy)-N-(3-((1,2,3,4-tetrahydroacridin-9-yl)amino)propyl)acetamide]", "values": [
      {"measurement": "Neuroprotective effect against Asc/Fe toxicity (cell viability, MTT)", "setting": "SH-SY5Y cells [2]", "value": "statistical significant neuroprotective effect"},
      {"measurement": "Solubility in methanol", "setting": "Solubility in methanol", "value": "soluble in methanol"},
      {"measurement": "Prevention of Aβ-induced cell toxicity (cell viability, MTT)", "setting": "SH-SY5Y cells [1]", "value": "capacity to prevent Aβ-induced toxicity; also recorded: prevented Aβ-induced cell toxicity"},
      {"measurement": "inhibition at 40 µM", "setting": "Aβ1–42 self-aggregation", "value": 33.7, "unit": "%"}
    ]}
  ]
}
